Experimental data from ChEMBL document CHEMBL1143353, “Pyrazolo[1,5-a]-1,3,5-triazine as a purine bioisostere: access to potent cyclin-dependent kinase inhibitor (R)-roscovitine analogue” (J Med Chem, 2009).

What was measured:
MDA-MB-231 = experiment: cells; conditions: Homo sapiens, MDA-MB-231, 72 h
Description: Antiproliferative activity against human MDA-MB-231 cells after 72 hrs by ViaLight assay

SF-539 = experiment: cells; conditions: Homo sapiens, SF-539, 72 h
Description: Antiproliferative activity against human SF539 cells after 72 hrs by ViaLight assay

COLO 205 = experiment: cells; conditions: Homo sapiens, COLO 205, 72 h
Description: Antiproliferative activity against human COLO205 cells after 72 hrs by ViaLight assay

NCI-H23 = experiment: cells; conditions: Homo sapiens, NCI-H23, 72 h
Description: Antiproliferative activity against human NCI-H23 cells after 72 hrs by ViaLight assay

NCI-H460 = experiment: cells; conditions: Homo sapiens, NCI-H460, 72 h
Description: Antiproliferative activity against human NCI-H460 cells after 72 hrs by ViaLight assay

MCF7 = experiment: cells; conditions: Homo sapiens, MCF7, 72 h
Description: Antiproliferative activity against human MCF7 cells after 72 hrs by ViaLight assay

SK-MEL-2 = experiment: cells; conditions: Homo sapiens, SK-MEL-2, 72 h
Description: Antiproliferative activity against human SK-MEL-2 cells after 72 hrs by ViaLight assay

M14 = experiment: cells; conditions: Homo sapiens, M14, 72 h
Description: Antiproliferative activity against human M14 cells after 72 hrs by ViaLight assay

NCI/ADR-RES = experiment: cells; conditions: Homo sapiens, 72 h
Description: Antiproliferative activity against human NCI/ADR-RES cells after 72 hrs by ViaLight assay

SF-268 = experiment: cells; conditions: Homo sapiens, SF-268, 72 h
Description: Antiproliferative activity against human SF268 cells after 72 hrs by ViaLight assay

PC-3 = experiment: cells; conditions: Homo sapiens, PC-3, 72 h
Description: Antiproliferative activity against human PC3 cells after 72 hrs by ViaLight assay

UACC-62 = experiment: cells; conditions: Homo sapiens, UACC-62, 72 h
Description: Antiproliferative activity against human UACC62 cells after 72 hrs by ViaLight assay

OVCAR-5 = experiment: cells; conditions: Homo sapiens, OVCAR-5, 72 h
Description: Antiproliferative activity against human OVCAR5 cells after 72 hrs by ViaLight assay

SK-MEL-5 = experiment: cells; conditions: Homo sapiens, SK-MEL-5, 72 h
Description: Antiproliferative activity against human SK-MEL-5 cells after 72 hrs by ViaLight assay

SNB-75 = experiment: cells; conditions: Homo sapiens, SNB-75, 72 h
Description: Antiproliferative activity against human SNB75 cells after 72 hrs by ViaLight assay

[1] = Inhibition of starfish oocytes CDK1/cyclin B; set-up: species or system Marthasterias glacialis; conditions: oocyte
ACHN = experiment: cells; conditions: Homo sapiens, 72 h
Description: Antiproliferative activity against human ACHN cells after 72 hrs by ViaLight assay

K562 = experiment: cells; conditions: Homo sapiens, K562, 72 h
Description: Antiproliferative activity against human K562 cells after 72 hrs by ViaLight assay

NCI-H322M = experiment: cells; conditions: Homo sapiens, 72 h
Description: Antiproliferative activity against human NCI-H322M cells after 72 hrs by ViaLight assay

SH-SY5Y = experiment: Antiproliferative activity against human SH-SY5Y cells after 48 hrs by MTS reduction assay; assay type: functional, cell-based
T47D = experiment: cells; conditions: Homo sapiens, 72 h
Description: Antiproliferative activity against human T47D cells after 72 hrs by ViaLight assay

MDA-MB-468 = experiment: cells; conditions: Homo sapiens, MDA-MB-468, 72 h
Description: Antiproliferative activity against human MDA-MB-468 cells after 72 hrs by ViaLight assay

EKVX = experiment: cells; conditions: Homo sapiens, 72 h
Description: Antiproliferative activity against human EKVX cells after 72 hrs by ViaLight assay

SR = experiment: cells; conditions: Homo sapiens, 72 h
Description: Antiproliferative activity against human SR cells after 72 hrs by ViaLight assay

UO-31 = experiment: cells; conditions: Homo sapiens, UO-31, 72 h
Description: Antiproliferative activity against human UO31 cells after 72 hrs by ViaLight assay

IGROV-1 = experiment: cells; conditions: Homo sapiens, IGROV-1, 72 h
Description: Antiproliferative activity against human IGROV1 cells after 72 hrs by ViaLight assay

CAKI-1 = experiment: cells; conditions: Homo sapiens, CAKI-1, 72 h
Description: Antiproliferative activity against human Caki1 cells after 72 hrs by ViaLight assay

Malme-3M = experiment: cells; conditions: Homo sapiens, 72 h
Description: Antiproliferative activity against human MALME-3M cells after 72 hrs by ViaLight assay

SK-OV-3 = experiment: cells; conditions: Homo sapiens, SK-OV-3, 72 h
Description: Antiproliferative activity against human SKOV3 cells after 72 hrs by ViaLight assay

OVCAR-4 = experiment: cells; conditions: Homo sapiens, OVCAR-4, 72 h
Description: Antiproliferative activity against human OVCAR4 cells after 72 hrs by ViaLight assay

CC[C@H](CO)Nc1nc(NCc2ccccc2)n2ncc(C(C)C)c2n1
GI50 (MDA-MB-231): 2.37 µM
TGI (MDA-MB-231): 9.47 µM
CC50 (MDA-MB-231; read-out: LC50): > 100 µM
GI50 (MDA-MB-231; read-out: pGI50 (converted)): 2.4 µM
CC50 (MDA-MB-231; read-out: pLC50 (converted)): 100 µM
TGI (MDA-MB-231; read-out: pTGI): 9.55 µM
GI50 (SF-539): 1.22 µM
TGI (SF-539): 3.62 µM
CC50 (SF-539; read-out: LC50): 11.9 µM
GI50 (SF-539; read-out: pGI50 (converted)): 1.23 µM
CC50 (SF-539; read-out: pLC50 (converted)): 11.7 µM
TGI (SF-539; read-out: pTGI): 3.63 µM
GI50 (COLO 205): 1.12 µM
TGI (COLO 205): 3.15 µM
CC50 (COLO 205; read-out: LC50): 8.86 µM
GI50 (COLO 205; read-out: pGI50 (converted)): 1.12 µM
CC50 (COLO 205; read-out: pLC50 (converted)): 8.71 µM
TGI (COLO 205; read-out: pTGI): 3.16 µM
GI50 (NCI-H23): 1.71 µM
TGI (NCI-H23): 7.79 µM
CC50 (NCI-H23; read-out: LC50): > 100 µM
GI50 (NCI-H23; read-out: pGI50 (converted)): 1.7 µM
CC50 (NCI-H23; read-out: pLC50 (converted)): 100 µM
TGI (NCI-H23; read-out: pTGI): 7.76 µM
GI50 (NCI-H460): 1.05 µM
TGI (NCI-H460): 10.9 µM
CC50 (NCI-H460; read-out: LC50): > 100 µM
GI50 (NCI-H460; read-out: pGI50 (converted)): 1.05 µM
CC50 (NCI-H460; read-out: pLC50 (converted)): 100 µM
TGI (NCI-H460; read-out: pTGI): 11 µM
GI50 (MCF7): 0.59 µM
TGI (MCF7): 7.99 µM
CC50 (MCF7; read-out: LC50): > 100 µM
GI50 (MCF7; read-out: pGI50 (converted)): 0.589 µM
CC50 (MCF7; read-out: pLC50 (converted)): 100 µM
TGI (MCF7; read-out: pTGI): 7.94 µM
GI50 (SK-MEL-2): 1.47 µM
TGI (SK-MEL-2): 6 µM
CC50 (SK-MEL-2; read-out: LC50): > 100 µM
GI50 (SK-MEL-2; read-out: pGI50 (converted)): 1.48 µM
CC50 (SK-MEL-2; read-out: pLC50 (converted)): 100 µM
TGI (SK-MEL-2; read-out: pTGI): 6.03 µM
GI50 (M14): 2 µM
TGI (M14): 7.93 µM
CC50 (M14; read-out: LC50): 34.3 µM
GI50 (M14; read-out: pGI50 (converted)): 2 µM
CC50 (M14; read-out: pLC50 (converted)): 34.7 µM
TGI (M14; read-out: pTGI): 7.94 µM
GI50 (NCI/ADR-RES): 2.08 µM
TGI (NCI/ADR-RES): 15.7 µM
CC50 (NCI/ADR-RES; read-out: LC50): > 100 µM
GI50 (NCI/ADR-RES; read-out: pGI50 (converted)): 2.09 µM
CC50 (NCI/ADR-RES; read-out: pLC50 (converted)): 100 µM
TGI (NCI/ADR-RES; read-out: pTGI): 15.8 µM
GI50 (SF-268): 1.82 µM
TGI (SF-268): 7.2 µM
CC50 (SF-268; read-out: LC50): > 100 µM
GI50 (SF-268; read-out: pGI50 (converted)): 1.82 µM
CC50 (SF-268; read-out: pLC50 (converted)): 100 µM
TGI (SF-268; read-out: pTGI): 7.24 µM
GI50 (PC-3): 0.93 µM
TGI (PC-3): 12.3 µM
CC50 (PC-3; read-out: LC50): > 100 µM
GI50 (PC-3; read-out: pGI50 (converted)): 0.117 µM
CC50 (PC-3; read-out: pLC50 (converted)): 100 µM
TGI (PC-3; read-out: pTGI): 0.123 µM
GI50 (UACC-62): 1.37 µM
TGI (UACC-62): 5.5 µM
CC50 (UACC-62; read-out: LC50): 31.1 µM
GI50 (UACC-62; read-out: pGI50 (converted)): 1.38 µM
CC50 (UACC-62; read-out: pLC50 (converted)): 30.9 µM
TGI (UACC-62; read-out: pTGI): 5.5 µM
GI50 (OVCAR-5): 1.85 µM
TGI (OVCAR-5): 15 µM
CC50 (OVCAR-5; read-out: LC50): > 100 µM
GI50 (OVCAR-5; read-out: pGI50 (converted)): 1.78 µM
CC50 (OVCAR-5; read-out: pLC50 (converted)): 100 µM
TGI (OVCAR-5; read-out: pTGI): 15.1 µM
GI50 (SK-MEL-5): 1.78 µM
TGI (SK-MEL-5): 4.96 µM
CC50 (SK-MEL-5; read-out: LC50): 17.4 µM
GI50 (SK-MEL-5; read-out: pGI50 (converted)): 1.78 µM
CC50 (SK-MEL-5; read-out: pLC50 (converted)): 17.4 µM
TGI (SK-MEL-5; read-out: pTGI): 5.01 µM
GI50 (SNB-75): 1.31 µM
TGI (SNB-75): 3.33 µM
CC50 (SNB-75; read-out: LC50): 8.48 µM
GI50 (SNB-75; read-out: pGI50 (converted)): 1.32 µM
CC50 (SNB-75; read-out: pLC50 (converted)): 8.51 µM
TGI (SNB-75; read-out: pTGI): 3.31 µM
IC50 [1]: 0.073 µM
GI50 (ACHN): 0.81 µM
TGI (ACHN): 10.7 µM
CC50 (ACHN; read-out: LC50): 49.1 µM
GI50 (ACHN; read-out: pGI50 (converted)): 0.813 µM
CC50 (ACHN; read-out: pLC50 (converted)): 49 µM
TGI (ACHN; read-out: pTGI): 10.7 µM
GI50 (K562): 2.44 µM
TGI (K562): 7.38 µM
CC50 (K562; read-out: LC50): > 100 µM
GI50 (K562; read-out: pGI50 (converted)): 2.45 µM
CC50 (K562; read-out: pLC50 (converted)): 100 µM
TGI (K562; read-out: pTGI): 7.41 µM
GI50 (NCI-H322M): 1.86 µM
TGI (NCI-H322M): 8.92 µM
CC50 (NCI-H322M; read-out: LC50): > 100 µM
GI50 (NCI-H322M; read-out: pGI50 (converted)): 1.86 µM
CC50 (NCI-H322M; read-out: pLC50 (converted)): 100 µM
TGI (NCI-H322M; read-out: pTGI): 8.91 µM
IC50 (SH-SY5Y): 2.7 µM
GI50 (T47D): 2.48 µM
TGI (T47D): 13.3 µM
CC50 (T47D; read-out: LC50): > 100 µM
GI50 (T47D; read-out: pGI50 (converted)): 3.09 µM
CC50 (T47D; read-out: pLC50 (converted)): 100 µM
TGI (T47D; read-out: pTGI): 12.9 µM
GI50 (MDA-MB-468): 1.88 µM
TGI (MDA-MB-468): 5.19 µM
CC50 (MDA-MB-468; read-out: LC50): 63.5 µM
GI50 (MDA-MB-468; read-out: pGI50 (converted)): 1.86 µM
CC50 (MDA-MB-468; read-out: pLC50 (converted)): 63.1 µM
TGI (MDA-MB-468; read-out: pTGI): 5.25 µM
GI50 (EKVX): 2.41 µM
TGI (EKVX): 9.13 µM
GI50 (EKVX; read-out: pGI50 (converted)): 2.4 µM
TGI (EKVX; read-out: pTGI): 9.12 µM
GI50 (SR): 0.25 µM
TGI (SR): 1.59 µM
CC50 (SR; read-out: LC50): > 100 µM
GI50 (SR; read-out: pGI50 (converted)): 2.51 µM
CC50 (SR; read-out: pLC50 (converted)): 100 µM
TGI (SR; read-out: pTGI): 1.58 µM
GI50 (UO-31): 1.59 µM
TGI (UO-31): > 100 µM
GI50 (UO-31; read-out: pGI50 (converted)): 1.58 µM
TGI (UO-31; read-out: pTGI): 100 µM
GI50 (IGROV-1): 0.78 µM
TGI (IGROV-1): > 100 µM
CC50 (IGROV-1; read-out: LC50): > 100 µM
GI50 (IGROV-1; read-out: pGI50 (converted)): 0.776 µM
CC50 (IGROV-1; read-out: pLC50 (converted)): 100 µM
TGI (IGROV-1; read-out: pTGI): 100 µM
GI50 (CAKI-1): 1.02 µM
TGI (CAKI-1): 8.35 µM
CC50 (CAKI-1; read-out: LC50): > 100 µM
GI50 (CAKI-1; read-out: pGI50 (converted)): 1.05 µM
CC50 (CAKI-1; read-out: pLC50 (converted)): 100 µM
TGI (CAKI-1; read-out: pTGI): 8.13 µM
GI50 (Malme-3M): 2.6 µM
TGI (Malme-3M): 6.99 µM
CC50 (Malme-3M; read-out: LC50): 43.5 µM
GI50 (Malme-3M; read-out: pGI50 (converted)): 2.63 µM
CC50 (Malme-3M; read-out: pLC50 (converted)): 43.7 µM
TGI (Malme-3M; read-out: pTGI): 6.92 µM
GI50 (SK-OV-3): 5.55 µM
TGI (SK-OV-3): 40.2 µM
CC50 (SK-OV-3; read-out: LC50): > 100 µM
GI50 (SK-OV-3; read-out: pGI50 (converted)): 5.5 µM
CC50 (SK-OV-3; read-out: pLC50 (converted)): 100 µM
TGI (SK-OV-3; read-out: pTGI): 39.8 µM
GI50 (OVCAR-4): 2.57 µM
TGI (OVCAR-4): 37 µM
CC50 (OVCAR-4; read-out: LC50): > 100 µM
GI50 (OVCAR-4; read-out: pGI50 (converted)): 2.63 µM
CC50 (OVCAR-4; read-out: pLC50 (converted)): 100 µM
TGI (OVCAR-4; read-out: pTGI): 0.372 µM
